Results as given in ChEMBL document CHEMBL5143564, “PES derivative PESA is a potent tool to globally profile cellular targets of PES” (Bioorg Med Chem Lett, 2022).
Activity calls are given as the source filed them. The rule behind the calls is not given here.

What was measured:
Jurkat = assay: Cytotoxicity against human Jurkat T cells measured after 72 hrs; type: functional, cell-based
[1] = molecular target: T1, Peroxiredoxin-1 (Homo sapiens) (UniProt Q06830); assay: Binding affinity to PRDX1 in human MDA-MB-453 cells measured after 6 hrs by pull-down assay; type: cell-based; conditions: dose <= 20.0 µM, DDE = dose-dependent effect
T1 sequence (whole entry): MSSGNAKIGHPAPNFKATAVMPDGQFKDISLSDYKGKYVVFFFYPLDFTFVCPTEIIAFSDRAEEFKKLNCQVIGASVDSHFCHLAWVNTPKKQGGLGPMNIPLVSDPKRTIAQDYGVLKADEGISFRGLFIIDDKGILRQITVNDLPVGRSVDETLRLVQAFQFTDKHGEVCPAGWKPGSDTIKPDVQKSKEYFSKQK

[2] = molecular target: T2, Protein disulfide-isomerase A4 (Homo sapiens) (UniProt P13667); assay: Binding affinity to PDIA4 in human DOHH-2 cells by MS analysis; type: cell-based
T2 sequence (whole entry): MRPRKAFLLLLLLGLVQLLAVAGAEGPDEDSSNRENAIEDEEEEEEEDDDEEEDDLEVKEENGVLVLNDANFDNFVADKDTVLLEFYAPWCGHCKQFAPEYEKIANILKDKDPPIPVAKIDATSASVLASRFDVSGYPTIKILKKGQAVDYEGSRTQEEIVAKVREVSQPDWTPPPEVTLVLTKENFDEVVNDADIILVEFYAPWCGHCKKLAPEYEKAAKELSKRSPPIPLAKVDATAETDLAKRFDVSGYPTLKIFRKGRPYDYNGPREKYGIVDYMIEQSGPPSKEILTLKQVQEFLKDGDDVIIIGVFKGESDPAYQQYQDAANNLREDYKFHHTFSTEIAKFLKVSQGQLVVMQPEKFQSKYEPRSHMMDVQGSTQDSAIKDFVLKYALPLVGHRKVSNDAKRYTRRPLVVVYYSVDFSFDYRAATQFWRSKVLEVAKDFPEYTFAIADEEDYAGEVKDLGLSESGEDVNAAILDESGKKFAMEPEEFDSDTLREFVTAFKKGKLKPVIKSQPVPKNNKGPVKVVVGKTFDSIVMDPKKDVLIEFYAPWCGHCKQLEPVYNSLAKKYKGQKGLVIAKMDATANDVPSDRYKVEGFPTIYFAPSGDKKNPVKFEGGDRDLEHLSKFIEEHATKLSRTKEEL

[3] = molecular target: Glutathione S-transferase P (Homo sapiens) (UniProt P09211); assay: Binding affinity to GSTP1 in human DOHH-2 cells by MS analysis; type: cell-based
DOHH-2 = assay: Induction of apoptosis in human DOHH-2 cells assessed as increase in cleaved caspase-3 expression at 0.5 to 8 uM measured after 24 hrs by Western blot analysis; type: functional, cell-based; conditions: dose 0.5-8 µM
MDA-MB-453 = assay: Cytotoxicity against human MDA-MB-453 cells measured after 72 hrs; type: functional, cell-based
Plastin-2 (Homo sapiens) = molecular target: T3, Plastin-2 (Homo sapiens) (UniProt P13796); assay: Binding affinity to plastin-2 in human DOHH-2 cells measured after 6 hrs by pull-down assay; type: cell-based; conditions: DDE = dose-dependent effect
T3 sequence (whole entry): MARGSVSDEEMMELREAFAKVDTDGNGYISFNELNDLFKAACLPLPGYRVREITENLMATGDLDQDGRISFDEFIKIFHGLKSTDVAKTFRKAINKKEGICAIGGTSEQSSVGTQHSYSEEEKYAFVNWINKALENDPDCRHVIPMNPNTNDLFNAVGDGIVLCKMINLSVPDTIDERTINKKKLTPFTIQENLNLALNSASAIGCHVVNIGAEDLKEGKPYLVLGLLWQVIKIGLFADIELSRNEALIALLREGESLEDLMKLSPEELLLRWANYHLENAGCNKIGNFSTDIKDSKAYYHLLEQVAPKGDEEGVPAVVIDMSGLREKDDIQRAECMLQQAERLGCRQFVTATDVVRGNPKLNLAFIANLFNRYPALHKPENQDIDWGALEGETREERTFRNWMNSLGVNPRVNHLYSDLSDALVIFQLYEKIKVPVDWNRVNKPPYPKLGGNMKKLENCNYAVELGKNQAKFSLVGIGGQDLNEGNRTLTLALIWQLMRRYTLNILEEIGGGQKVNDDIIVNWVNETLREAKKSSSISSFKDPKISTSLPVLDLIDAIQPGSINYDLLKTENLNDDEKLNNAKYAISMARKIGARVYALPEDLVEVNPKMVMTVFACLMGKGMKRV

[4] = molecular target: T4, Peroxiredoxin-5, mitochondrial (Homo sapiens) (UniProt P30044); assay: Binding affinity to PRDX5 in human MDA-MB-453 cells measured after 6 hrs by pull-down assay; type: cell-based; conditions: dose <= 20.0 µM, DDE = dose-dependent effect
T4 sequence (whole entry): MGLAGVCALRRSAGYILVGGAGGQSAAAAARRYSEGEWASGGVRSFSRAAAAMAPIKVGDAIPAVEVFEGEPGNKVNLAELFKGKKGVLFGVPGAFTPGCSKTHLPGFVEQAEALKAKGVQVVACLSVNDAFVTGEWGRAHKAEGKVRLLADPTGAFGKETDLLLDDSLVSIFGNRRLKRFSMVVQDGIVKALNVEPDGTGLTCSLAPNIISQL

[5] = molecular target: T5, Peroxiredoxin-2 (Homo sapiens) (UniProt P32119); assay: Binding affinity to PRDX2 in human DOHH-2 cells by MS analysis; type: cell-based
T5 sequence (whole entry): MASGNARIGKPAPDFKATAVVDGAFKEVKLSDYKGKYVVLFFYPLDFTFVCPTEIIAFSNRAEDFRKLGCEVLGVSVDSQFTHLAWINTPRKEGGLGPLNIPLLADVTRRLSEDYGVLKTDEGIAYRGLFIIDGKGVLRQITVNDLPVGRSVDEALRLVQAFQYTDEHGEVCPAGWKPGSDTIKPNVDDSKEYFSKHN

[6] = molecular target: T6, Protein disulfide-isomerase A6 (Homo sapiens) (UniProt Q15084); assay: Binding affinity to PDIA6 in human DOHH-2 cells by MS analysis; type: cell-based
T6 sequence (whole entry): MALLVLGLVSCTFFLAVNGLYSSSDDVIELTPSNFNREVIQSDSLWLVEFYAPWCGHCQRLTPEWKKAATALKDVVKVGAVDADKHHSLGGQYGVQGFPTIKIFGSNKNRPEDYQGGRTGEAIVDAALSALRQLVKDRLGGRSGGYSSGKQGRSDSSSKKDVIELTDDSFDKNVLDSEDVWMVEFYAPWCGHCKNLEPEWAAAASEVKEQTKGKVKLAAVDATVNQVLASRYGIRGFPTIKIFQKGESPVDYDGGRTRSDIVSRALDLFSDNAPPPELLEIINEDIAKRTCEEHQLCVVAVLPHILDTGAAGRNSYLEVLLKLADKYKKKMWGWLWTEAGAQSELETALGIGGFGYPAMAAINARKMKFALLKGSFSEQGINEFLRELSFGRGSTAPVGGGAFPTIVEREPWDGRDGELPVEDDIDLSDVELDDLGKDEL

Chain of Glutathione S-transferase P (Homo sapiens) (P09211 2-210 limits assumed): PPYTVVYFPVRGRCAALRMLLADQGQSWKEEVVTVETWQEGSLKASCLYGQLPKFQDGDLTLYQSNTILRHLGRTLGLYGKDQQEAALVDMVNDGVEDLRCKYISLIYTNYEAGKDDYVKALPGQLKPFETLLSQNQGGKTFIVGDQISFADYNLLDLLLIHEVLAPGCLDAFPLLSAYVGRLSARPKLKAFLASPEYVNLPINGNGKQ

Activity [1]: Dde
Activity [2]: Active
Activity [3]: Active
Activity (Plastin-2 (Homo sapiens)): Dde
Activity [4]: Dde
Activity [5]: Active
Activity [6]: Active
SMILES: C#Cc1cccc(C#CS(N)(=O)=O)c1
Activity (Jurkat): Active
Activity (DOHH-2): Active
Activity (MDA-MB-453): Active
